Experiments:
[1] = tested on: PD20 FANCD2−/− cells complemented with wild-type FANCD2; test: Clonogenic assay for cisplatin sensitivity; format: cell-based, human
Procedure: (§1) The genetic interaction between FANCD2 and DNA2 was examined in the repair of cisplatin- or formaldehyde-induced damage. Using PD20 FANCD2^−/− cells complemented with wild-type FANCD2 or an empty vector, DNA2 was depleted using shRNA techniques (FIG. 2A). As shown, DNA2 was reduced to levels undetectable by western blotting. The cell lines were exposed to cisplatin, and a clonogenic assay was performed (FIG. 2B). […] This rescue is stronger than previously reported, consistent with lower residual DNA2 levels detected by western blotting in the knockdowns (Karanja et al., 2012, Cell Cycle, 11:3983-3996, the entire contents of which are herein incorporated by reference.)
(§2) For acute exposure, formaldehyde (0, 40, 80, 160, 320 μM) was added for 4 h in PBS. Cells were washed in PBS and grown for 5 days. For chronic exposure, cells were continuously grown in formaldehyde (0, 30, 60, 90, 120 μM) for 6 days. To determine viability, cells were fixed and stained with crystal violet and scanned with a Licor Odyssey scanner (LiCor Biosciences). The surviving fraction was determined by comparing treated with the non-treated controls. […] Surviving fraction was determined by comparing treated with the non-treated controls.

PD20 FANCD2−/− cells = test: Clonogenic assay for cisplatin sensitivity; format: cell-based, human; conditions: FANCD2−/− cells (empty vector)
Procedure: as §1, §2

SMILES: N.N.[Cl][Pt][Cl] [cisplatin]
- sensitivity of cells to cisplatin (clonogenic survival) [1]: resistant
- sensitivity of cells to cisplatin (clonogenic survival) (PD20 FANCD2−/− cells): very sensitive

— patent publication US9322022B2, “Inhibition of DNA2 in fanconi anemia” (California Institute of Technology, priority 2013, dated 2016)
